pIC50: −log10 of the molar value. Read-outs that look alike come from different tables or passages of the source.
Key:
SK-MEL-28 = assay: IC50 cell-based assay, adherent cells, SK-MEL-28; settings: Homo sapiens, Melanoma, 72 hours, read-out: IC50 of Compounds in Adherent Cell Types
Experimental: (§1) In one embodiment, the IC50s of the compounds provided herein were determined in cell-based assays using adherent cells. In one embodiment, the activity of the compounds provided herein were determined in a cell-based assay using the triple negative breast cancer cell line MDA-MB-468. In one embodiment, the adherent cells used in the cell-based assays may be a cell type selected from Table 1. In one embodiment, the cell-based assay may be carried out as provided herein. On day 0, cells were seeded at 20,000 cells per well in 100 µL of media into individual wells of a 96-well tissue culture plate. The next day, compounds were diluted to twice the desired final concentration and added in 100 µL of media for a final volume of 200 μL. Standard solutions for each compound were prepared at 1000× concentration in DMSO. The highest concentration was 30 mM. Serial 1:1 dilutions were made from there for a 6- or 9-point curve (e.g., 30 mM, 15 mM, 7.5 mM, etc). Compounds were then diluted 1:500 in media, and 100 µL of the resulting solution was added to each well for a final dilution of 1:1000. Each concentration of compound was tested in triplicate. Cells were incubated at 37° C. with 5% CO2. After 72 hours, 20 μL of CellTiter 96 Aqueous One Solution Cell Proliferation Assay (Promega) was added to each well. Cells were placed back in the incubator, and the absorbance at 490 nm was read after 2-3 hours. The concentration of compound that decreased the number of metabolically active cells by 50% was determined and reported as the IC50. “Percent Viability” was determined by subtracting the average background value (media only) and expressed as a ratio to the average value obtained from cells treated with only DMSO.

Panc-1 = assay: IC50 cell-based assay, adherent cells, Panc-1; settings: Homo sapiens, Pancreas, epitheloid carcinoma, 72 hours, read-out: IC50 of Compounds in Adherent Cell Types
Experimental: as §1

[1] = Percent weight change of animals in MDA-MB-468 xenograft study; type: in vivo, Mouse/SCID; settings: qd 50 mg/kg IP, SCID mice
Experimental: In one embodiment, the effects of a compound provided herein on tumor growth in a mouse animal model were evaluated. In specific embodiments, the mouse animal model was the MDA-MB-468 xenograft model for breast cancer. Studies were performed to evaluate the effect of a compound provided herein on the growth of MDA-MB-468 breast tumors in mice. The test system that was used is summarized below:
Exemplary Protocol: Ten mice per group were inoculated s.c. on the left flank with 5×10^6 MDA-MB-468 cells. When tumors reached a mean volume of 100 or 200 mm^3, animals began treatment with a compound provided herein (See Table 4). Test article or vehicle were given once daily by IP injection for up to 21 days. Tumors were evaluated every Monday, Wednesday and Friday, body weights and condition were evaluated on a daily basis.
Animal Weight: All animals were weighed […] throughout the study. Group weight change was expressed as a daily group mean weight. Animals that lost greater than 20% of their total starting body weight were euthanized.
Compound 1 was dosed in mice at a dose of, for example, qd 50 mg/kg, for 22 days or more.
Compound 2 was dosed in mice at a dose of, for example, qd 20 mg/kg from day 0 to 7, then qd 10 mg/kg from day 8 and thereafter, for 22 days or more.

RT-4 = assay: IC50 cell-based assay, adherent cells, RT-4; settings: Homo sapiens, Bladder, papilloma, 72 hours, read-out: IC50 of Compounds in Adherent Cell Types
Experimental: as §1

HL-60 = assay: IC50 cell-based assay, suspension cells, HL-60; settings: Homo sapiens, Leukemia, AML, read-out: IC50 of Compounds in Suspension Cell Types
Experimental: as §1
(§2) In one embodiment, the IC50s of the compounds provided herein were determined in cell-based assays using suspension cells. In one embodiment, the activity of the compounds provided herein were determined in a cell-based assay using the JeKo-1 cell line (mantle cell lymphoma) or the Pfeiffer cell line (diffuse large B-cell lymphoma). In one embodiment, the suspension cells used in the cell-based assays may be a cell type selected from Table 2. Assays with suspension cells were similar except that 40,000-60,000 cells were added to each well and compounds were added immediately after cell plating.

Hep-G2 = assay: IC50 cell-based assay, adherent cells, Hep-G2; settings: Homo sapiens, HepG2, Liver, hepatocellular carcinoma, 72 hours, read-out: IC50 of Compounds in Adherent Cell Types
Experimental: as §1

MDA-MB-361 = assay: IC50 cell-based assay, adherent cells, MDA-MB-361; settings: Homo sapiens, Breast, Brain met Her2-neu + ER +, 72 hours, read-out: IC50 of Compounds in Adherent Cell Types
Experimental: as §1

Pfeiffer = assay: IC50 cell-based assay, suspension cells, Pfeiffer; settings: Homo sapiens, Lymphoma, Diffuse large b-cell, read-out: IC50 of Compounds in Suspension Cell Types
Experimental: as §1, §2

Kg1a = assay: IC50 cell-based assay, suspension cells, Kg1a; settings: Homo sapiens, KG-1a, Leukemia, AML, read-out: IC50 of Compounds in Suspension Cell Types
Experimental: as §1, §2

Z138, JeKo-1 = assay: IC50 cell-based assay, suspension cells, Z138, JeKo-1; settings: Lymphoma, Mantle cell, read-out: IC50 of Compounds in Suspension Cell Types
Experimental: as §1, §2

MDA-MB-231 = assay: IC50 cell-based assay, adherent cells, MDA-MB-231; settings: Homo sapiens, Breast, triple neg, 72 hours, read-out: IC50 of Compounds in Adherent Cell Types
Experimental: as §1

Nalm-6 = assay: IC50 cell-based assay, suspension cells, Nalm-6; settings: Homo sapiens, Leukemia, B-ALL, read-out: IC50 of Compounds in Suspension Cell Types
Experimental: as §1, §2

[2] = tested on: triple negative breast cancer cell line MDA-MB-468; assay: IC50 cell-based assay, adherent cells, MDA-MB-468; settings: Homo sapiens
Experimental: as §1
The IC50s of the compounds provided herein were determined in cell-based assay using triple negative breast cancer cell line MDA-MB-468.

H-460 = assay: IC50 cell-based assay, adherent cells, H-460; settings: Homo sapiens, NCI-H460, Lung, large cell carcinoma, 72 hours, read-out: IC50 of Compounds in Adherent Cell Types
Experimental: as §1

O=C(Nc1cc(C(F)(F)F)cc(C(F)(F)F)c1)c1cc(-c2ccccc2)oc1C(F)(F)F [Compound 1, 5-Phenyl-2-trifluoromethyl-furan-3-carboxylic acid (3,5-bis-trifluoromethyl-phenyl)-amide]
pIC50 (SK-MEL-28): > 5.30
pIC50 (Panc-1): > 5.30
Percent Weight Change of Control and Treated Animals, mean ([1]; Day 1): 0.00%
Percent Weight Change of Control and Treated Animals, mean ([1]; Day 2): −0.44%
Percent Weight Change of Control and Treated Animals, mean ([1]; Day 3): −1.43%
Percent Weight Change of Control and Treated Animals, mean ([1]; Day 4): −2.23%
Percent Weight Change of Control and Treated Animals, mean ([1]; Day 5): −2.06%
Percent Weight Change of Control and Treated Animals, mean ([1]; Day 6): −2.03%
Percent Weight Change of Control and Treated Animals, mean ([1]; Day 7): −3.50%
Percent Weight Change of Control and Treated Animals, mean ([1]; Day 8): −4.53%
Percent Weight Change of Control and Treated Animals, mean ([1]; Day 9): −2.38%
Percent Weight Change of Control and Treated Animals, mean ([1]; Day 10): −3.42%
Percent Weight Change of Control and Treated Animals, mean ([1]; Day 11): −1.63%
Percent Weight Change of Control and Treated Animals, mean ([1]; Day 12): 1.40%
Percent Weight Change of Control and Treated Animals, mean ([1]; Day 13): 1.13%
Percent Weight Change of Control and Treated Animals, mean ([1]; Day 14): −0.56%
Percent Weight Change of Control and Treated Animals, mean ([1]; Day 15): 2.28%
Percent Weight Change of Control and Treated Animals, mean ([1]; Day 16): 2.07%
Percent Weight Change of Control and Treated Animals, mean ([1]; Day 17): 2.03%
Percent Weight Change of Control and Treated Animals, mean ([1]; Day 18): 2.87%
Percent Weight Change of Control and Treated Animals, mean ([1]; Day 19): 4.84%
Percent Weight Change of Control and Treated Animals, mean ([1]; Day 20): 0.92%
Percent Weight Change of Control and Treated Animals, mean ([1]; Day 21): 1.87%
Percent Weight Change of Control and Treated Animals, mean ([1]; Day 22): 0.07%
pIC50 (RT-4): 4.70 to 5.00
pIC50 (HL-60): > 5.30
pIC50 (Hep-G2): 5.00 to 5.30
pIC50 (MDA-MB-361): > 5.30
pIC50 (Pfeiffer): > 5.30
pIC50 (Kg1a): > 5.30
pIC50 (Z138, JeKo-1): > 5.30
pIC50 (MDA-MB-231): > 5.30
pIC50 (Nalm-6): > 5.30
pIC50 ([2]; MDA-MB-468, Breast, triple neg, 72 hours, Table 1, read-out: IC50 of Compounds in Adherent Cell Types): > 5.30
pIC50 ([2]; MDA-MB-468 cells, Table 3, read-out: IC50 of Compounds in MDA-MB-468 Cells): 5.82
pIC50 (H-460): 4.70 to 5.00

Reference: patent US8722731B2, “Furanyl compounds and the use thereof” (NovoMedix, LLC, priority 2010, dated 2014)
